Results from US20250230193A1, “CYCLIC COMPOUND HAVING SELECTIVE KRAS INHIBITORY EFFECT ON HRAS AND NRAS” (CHUGAI SEIYAKU KABUSHIKI KAISHA, priority 2022, published 2025).

Experiments:
[1] = molecular target: GDP-bound NRAS wild-type protein (Homo sapiens, UniProt P01111); assay: Binding to NRAS by surface plasmon resonance (SPR), Single Cycle Kinetics; conditions: KD ratio, GDP-bound NRAS wild-type vs GDP-bound KRAS wild-type, SPR
[2] = molecular target: GDP-bound HRAS wild-type protein (Homo sapiens, UniProt P01112); assay: Binding to HRAS by surface plasmon resonance (SPR), Single Cycle Kinetics; conditions: KD ratio, GDP-bound HRAS wild-type vs GDP-bound KRAS wild-type, SPR
GDP-bound HRAS wild-type protein, sequence (P01112 whole entry): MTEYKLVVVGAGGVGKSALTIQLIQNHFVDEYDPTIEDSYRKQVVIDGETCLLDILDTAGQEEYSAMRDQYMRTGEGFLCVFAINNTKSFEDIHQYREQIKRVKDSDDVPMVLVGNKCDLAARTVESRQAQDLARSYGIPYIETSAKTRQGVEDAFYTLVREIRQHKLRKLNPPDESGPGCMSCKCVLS

GDP-bound NRAS wild-type protein, sequence (P01111 whole entry): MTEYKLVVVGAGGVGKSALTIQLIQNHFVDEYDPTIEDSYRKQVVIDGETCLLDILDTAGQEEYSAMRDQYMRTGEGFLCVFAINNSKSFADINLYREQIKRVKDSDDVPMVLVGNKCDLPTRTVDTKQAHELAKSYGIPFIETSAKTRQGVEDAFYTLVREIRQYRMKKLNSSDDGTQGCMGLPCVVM

| SMILES | NRAS/KRAS (ratio of KD value with respect to NRAS to KD value with respect to KRAS) [1] | HRAS/KRAS (ratio of KD value with respect to HRAS to KD value with respect to KRAS) [2] |
| --- | --- | --- |
| CC[C@H](C)[C@@H]1NC(=O)[C@H](CC(C)C)N(C)C(=O)C[C@@H](C(=O)N2CCOCC2)N(C)C(=O)[C@H](C2CCCC2)N(C)C(=O)C2(CCC2)NC(=O)[C@@H]2[C@@H](O)CCN2C(=O)[C@H](CCc2cc(F)c(C(F)(F)F)c(F)c2)NC(=O)CN(C)C(=O)[C@H](Cc2ccc(C(F)(F)F)cc2)N2CCCCC[C@@H](C2=O)N(C)C(=O)CN(C)C1=O [PP0872] | A (a compound having 10 or more and less than 20 is denoted as A) | A (a compound having 10 or more and less than 20 is denoted as A) |
| CC[C@H](C)[C@@H]1NC(=O)[C@H](CC(C)C)N(C)C(=O)C[C@@H](C(=O)N2CCOCC2)N(C)C(=O)[C@H](C2CCCC2)N(C)C(=O)C2(CCC2)NC(=O)[C@@H]2[C@H](O)CCN2C(=O)[C@H](CCc2cc(F)c(C(F)(F)F)c(F)c2)NC(=O)CN(C)C(=O)[C@H](Cc2ccc(C(F)(F)F)cc2)N2CCCCC[C@@H](C2=O)N(C)C(=O)CN(C)C1=O [PP0873] | A (a compound having 10 or more and less than 20 is denoted as A) | B (a compound having 3 or more and less than 10 is denoted as B) |
| C=CC[C@H]1C(=O)N[C@@H]([C@@H](C)CC)C(=O)N(C)CC(=O)N(C)[C@H]2CCCCN(C2=O)[C@@H](Cc2ccc(C(F)(F)F)cc2)C(=O)N(C)CC(=O)N[C@@H](CCc2cc(F)c(C(F)(F)F)c(F)c2)C(=O)N2C[C@H](OCC)C[C@H]2C(=O)N[C@](C)(CC=C)C(=O)N(C)[C@@H](C2CCCC2)C(=O)N(C)[C@H](C(=O)N2CCOCC2)CC(=O)N1C [PP0874] | C (A compound having a KD ratio of 0.1 or more and less than 3 is denoted as C) | B (a compound having 3 or more and less than 10 is denoted as B) |
| C=CCC[C@H]1C(=O)N[C@@H]([C@@H](C)CC)C(=O)N(C)CC(=O)N(C)[C@H]2CCCCN(C2=O)[C@@H](Cc2ccc(C(F)(F)F)cc2)C(=O)N(C)CC(=O)N[C@@H](CCc2cc(F)c(C(F)(F)F)c(F)c2)C(=O)N2C[C@H](OCC)C[C@H]2C(=O)N[C@](C)(CC=C)C(=O)N(C)[C@@H](C2CCCC2)C(=O)N(C)[C@H](C(=O)N2CCOCC2)CC(=O)N1C [PP0875] | C (A compound having a KD ratio of 0.1 or more and less than 3 is denoted as C) | B (a compound having 3 or more and less than 10 is denoted as B) |
| C=CCCC[C@H]1C(=O)N[C@@H]([C@@H](C)CC)C(=O)N(C)CC(=O)N(C)[C@H]2CCCCN(C2=O)[C@@H](Cc2ccc(C(F)(F)F)cc2)C(=O)N(C)CC(=O)N[C@@H](CCc2cc(F)c(C(F)(F)F)c(F)c2)C(=O)N2C[C@H](OCC)C[C@H]2C(=O)N[C@](C)(CC=C)C(=O)N(C)[C@@H](C2CCCC2)C(=O)N(C)[C@H](C(=O)N2CCOCC2)CC(=O)N1C [PP0876] | C (A compound having a KD ratio of 0.1 or more and less than 3 is denoted as C) | C (A compound having a KD ratio of 0.1 or more and less than 3 is denoted as C) |
| C=CCCCC[C@H]1C(=O)N[C@@H]([C@@H](C)CC)C(=O)N(C)CC(=O)N(C)[C@H]2CCCCN(C2=O)[C@@H](Cc2ccc(C(F)(F)F)cc2)C(=O)N(C)CC(=O)N[C@@H](CCc2cc(F)c(C(F)(F)F)c(F)c2)C(=O)N2C[C@H](OCC)C[C@H]2C(=O)N[C@](C)(CC=C)C(=O)N(C)[C@@H](C2CCCC2)C(=O)N(C)[C@H](C(=O)N2CCOCC2)CC(=O)N1C [PP0877] | C (A compound having a KD ratio of 0.1 or more and less than 3 is denoted as C) | B (a compound having 3 or more and less than 10 is denoted as B) |
